Results published in ChEMBL document CHEMBL4840323, “Discovery of an Orally Bioavailable Small-Molecule Inhibitor for the β-Catenin/B-Cell Lymphoma 9 Protein-Protein Interaction” (J Med Chem, 2021).
The source made the active and inactive calls. The rule behind the calls is not given here.

What was measured:
MCF-10A [1] = test: Induction of apoptosis in human MCF-10A cells assessed as late apoptotic cells at 10 uM measured after 72 hrs by annexinV-FITC/propidium iodide staining based flow cytometry (reference value: 13.9 %); type: cell-based
Mus musculus [2] = species on record: Mus musculus; conditions: dose 90.0 mg/kg, time 5.0 day
MDA-MB-468 [3] = test: Antiproliferative activity against human MDA-MB-468 cells harboring beta-catenin pcDNA3.1 vector at 20 uM measured after 72 hrs by MTS assay; type: functional, cell-based
[4] = Solubility of the compound in 0.9% NaCl at 2 mg/ml; type: physicochemical
MDA-MB-468 [5] = test: Induction of apoptosis in human MDA-MB-468 cells assessed as late apoptotic cells at 20 uM measured after 72 hrs by annexinV-FITC/propidium iodide staining based flow cytometry (reference value: 13.9 %); type: functional
[6] = Intrinsic clearance in human liver microsomes at 1 uM measured up to 60 mins in presence of NADPH by LC-MS/SM analysis; type: ADME, Microsome
Mus musculus [7] = species on record: Mus musculus; conditions: dose 90.0 mg/kg, time 5.0 day; remark: listed apart in the source
MCF-10A [8] = test: Induction of apoptosis in human MCF-10A cells assessed as late apoptotic cells at 40 uM measured after 72 hrs by annexinV-FITC/propidium iodide staining based flow cytometry (reference value: 13.9 %); type: cell-based
[9] = AUC in C57BL/6 mouse at 20 mg/kg, po via gavage measured up to 24 hrs by LC-MS/MS analysis; type: ADME, organism-based; design: route oral, dose 20 mg/kg, time <=24; conditions: in vivo
MCF-10A [10] = test: cells; conditions: Homo sapiens, 72 h
Description: Cytotoxicity against human MCF-10A cells assessed as cell growth inhibition measured after 72 hrs by MTS assay

MDA-MB-231 = test: Induction of apoptosis in human MDA-MB-231 cells assessed as late apoptotic cells at 20 uM measured after 72 hrs by annexinV-FITC/propidium iodide staining based flow cytometry (reference value: 8.8 %); type: functional
MCF-10A [11] = test: Induction of apoptosis in human MCF-10A cells assessed as late apoptotic cells at 20 uM measured after 72 hrs by annexinV-FITC/propidium iodide staining based flow cytometry (reference value: 13.9 %); type: cell-based
MDA-MB-468 [12] = test: Induction of apoptosis in human MDA-MB-468 cells assessed as early apoptotic cells at 40 uM measured after 72 hrs by annexinV-FITC/propidium iodide staining based flow cytometry (reference value: 28.9 %); type: functional
Mus musculus [13] = species on record: Mus musculus; conditions: dose 90.0 mg/kg, time 5.0 day; remark: listed apart in the source
[14] = Oral bioavailability in C57BL/6 mouse at 20 mg/kg measured up to 24 hrs by LC-MS/MS analysis; type: ADME, organism-based; conditions: in vivo
Mus musculus [15] = species on record: Mus musculus; conditions: dose 90.0 mg/kg, time 5.0 day; remark: listed apart in the source
MDA-MB-468 [16] = test: Induction of apoptosis in human MDA-MB-468 cells assessed as early apoptotic cells at 10 uM measured after 72 hrs by annexinV-FITC/propidium iodide staining based flow cytometry (reference value: 28.9 %); type: functional
SW480 = test: Inhibition of Wnt/beta-catenin transactivation signalling in human SW480 cells assessed as relative activity at 6.25 uM measured after 24 hrs by TOPFlash reporter gene assay relative to control; type: cell-based; design: scale not given: the % may be the effect or the level left
HCT-116 = test: cells; conditions: Homo sapiens, HCT-116, 72 h
Description: Antiproliferative activity against human HCT-116 cells assessed as cell growth inhibition measured after 72 hrs by MTS assay

Mus musculus [17] = species on record: Mus musculus; conditions: dose 90.0 mg/kg, time 5.0 day; remark: listed apart in the source
MDA-MB-468 [18] = test: Induction of apoptosis in human MDA-MB-468 cells assessed as late apoptotic cells at 40 uM measured after 72 hrs by annexinV-FITC/propidium iodide staining based flow cytometry (reference value: 13.9 %); type: functional
[19] = AUC in C57BL/6 mouse at 1 mg/kg, iv measured after 5 mins by LC-MS/MS analysis; type: ADME, organism-based; design: route intravenous, dose 1 mg/kg, time 5 min; conditions: in vivo

## CC(C)(Oc1cccc(N2CCC[C@@H](C(=O)N(Cc3ccc(-c4cn[nH]c4)cc3)C3CC3)C2)c1)C(=O)N1CCNCC1.Cl
MCF-10A [1]
  Activity: 12.3%
Mus musculus [2]
  inhibition: Active
MDA-MB-468 [3]
  Activity: inactive
[4]
  solubility: Soluble
MDA-MB-468 [5]
  Activity: 24.6%
[6]
  CLint at 1 h, 1 µM: 18 µL/min/mg
Mus musculus [7]
  inhibition: Active
MCF-10A [8]
  Activity: 15.3%
[9]
  AUC: 11.71 µM·h
MCF-10A [10]
  IC50: 92 µM
MDA-MB-231
  Activity: 23%
MCF-10A [11]
  Activity: 17.3%
MDA-MB-468 [12]
  Activity: 53.5%
Mus musculus [13]
  inhibition: Active
[14]
  F: 83%
Mus musculus [15]
  inhibition: Active
MDA-MB-468 [16]
  Activity: 17.5%
SW480
  Activity: 97%
HCT-116
  IC50: 76 µM
Mus musculus [17]
  inhibition: Active
MDA-MB-468 [18]
  Activity: 33.4%
[19]
  AUC: 0.71 µM·h
